Common to all, as to assay type: in vivo
The subject of assay [1] is Sinapis. The assay can be described thus: Field pre-emergence test, Sinapis. The note with it: reading 0 (no effect) to 10 (completely killed), the values are: rating score 0–10. On the procedure:
(§1) Forty rows, 70 feet long, were planted to weeds and crops. Two rows were planted on each bed. Beds were 40 inches apart from center to center. The two rows were about 10 inches apart on each. Beds were rolled prior to planting to provide a uniform smooth surface. Soil temperature at a depth of 11/2 inches was 66° F. at time of planting. Post-emergence applications were made by spraying bands across rows 10 feet wide using a self-propelled plot sprayer with a 10 foot boom equipped with Teejet 8001 flat spray nozzle tips and operated at 40 psi. A total of 84 fluid ounces of spray material was applied to three replicates. Each replicate plot was 10 feet wide by 66.67 feet long.
(§2) An additional 100 feet of crops and weeds shown in TABLES XIII and XIV were planted in the same manner as the above post-emergence plots. Soil temperature at planting was […] at a depth of 11/2 inches. […]
(§3) Eight days after the application, readings were made on the effect of the chemicals on each crop and weed in the post-emergence treatment. A reading of 0 was recorded if no effect was observed; 10 recorded if the plants were completely killed, and readings of 1 to 9 for intermediate kills. A second reading of the post-emergence treatments was made 14 days after the application.
(§4) Readings were made 14 and 20 days after the pre-emergence application.

For assay [2], the system named is Oats. The assay can be described thus: Field pre-emergence test, oats. The note with it: reading 0 (no effect) to 10 (completely killed), the values are: rating score 0–10. On the procedure: as §1, §2, §3, §4
Assay [3] relates to Wheat. The experiment in a line: Field pre-emergence test, wheat. The note with it: reading 0 (no effect) to 10 (completely killed), the values are: rating score 0–10. As to the method:
as §1, §2, §3, §4

For assay [4], the system named is Sinapis. The assay can be described thus: Field post-emergence test, Sinapis. Conditions: 2 lbs/acre, reading 0 (no effect) to 10 (completely killed), the values are: rating score 0–10. On the procedure:
as §1, §3

Assay [5] relates to Oats. The experiment in a line: Field post-emergence test, oats. The note with it: 2 lbs/acre, reading 0 (no effect) to 10 (completely killed), the values are: rating score 0–10. On the procedure: as §1, §3
Assay [6] deals with Wheat. The experiment in a line: Field post-emergence test, wheat. The note with it: 2 lbs/acre, reading 0 (no effect) to 10 (completely killed), the values are: control rating (0–10 scale). As to the method:
as §1, §3

The next assay relates to crops and weed species. The experiment in a line: Pre- and post-emergence herbicide tests, overall assessment. Conditions: TABLES III-VI. On the procedure: All crop and weed species were planted individually in 3" plastic pots containing potting soil. Four seeds each of corn, cotton, and snapbeans were seeded to a depth equal to the diameter of the seed. All other species were surface seeded and sprinkled with screened soil in an amount sufficient to cover the seed. Immediately after planting, all pots were watered by sub-irrigation in greenhouse trays. Pots for the pre-emergence phase were seeded one day before treatment.
Planting dates for the post-emergence phase were varied so that all seedlings would reach the desired stage of development simultaneously. The proper stage of seedling development for treatment in the post-emergence phase is as follows:
Compounds were tested at rates of application equivalent to 8 lbs. of actual compound per acre in a spray volume of 38 gallons per acre. Spray hood constants required to deliver the above volume are as follows:
Spray applications were made in a hood containing a removable belt and fixed spray nozzle. For passage through the spray hood, one pot of each specie (pre-emergence phase) was placed on the rear half of the flat. Treatments were removed to the greenhose after spraying. Watering during the observation period was done only by sub-irrigation.
Two weeks after treatment, pre- and post-emergence injury or control was visually rated, and the results were as shown in the following tables. Pre-emergence data are provided in TABLE III and post-emergence data are provided in TABLE IV, for compounds having the formula illustrated in TABLE I. Correspondingly, pre-emergence and post-emergence data, respectively, are set forth in TABLES V AND VI, for compounds having the formula illustrated in TABLE II.

The structures appear in SMILES notation.

Take `CNC(=O)Nc1nnc(C(F)(F)F)s1` [Example 1, 1-Methyl-3-[5-Trifluoromethyl-2-(1,3,4-Thiadiazolyl)] Urea]: the PRE-EMERGENCY ACTIVITY, % CONTROL in the assay with Sinapis [1] (1 lbs/acre), in the assay with Sinapis [1] (2 lbs/acre), in the assay with Oats [2] (1 lbs/acre), in the assay on Oats [2] (2 lbs/acre), with Wheat [3] (1 lbs/acre) and in the assay on Wheat [3] (2 lbs/acre) was 10 throughout. The POST-EMERGENCE ACTIVITY, % CONTROL with Sinapis [4] was 10; in the assay with Oats [5], 9; in the assay with Wheat [6], 10. Besides, the “effectiveness applied to a variety of crops and weed species” value (“effectiveness applied to a variety” below) in the assay on crops and weed species was “extremely effective”.
With `CN(C)C(=O)Nc1nnc(C(F)(F)F)s1` [Example 2, 1,1-Dimethyl-3-[5-Trifluoromethyl-2-(1,3,4-Thiadiazolyl)] Urea], the “effectiveness applied to a variety” value in the assay on crops and weed species is “extremely effective”.
On to `CSc1nnc(N(C)C(=O)N(C)C)s1` [Example 5, 1,1,3-trimethyl-3-[5-methylthio-3-(1,3,4-thiadiazolyl)] urea], for which the “effectiveness applied to a variety” value in the assay with crops and weed species is given as “extremely effective”.
As to `CCNC(=O)Nc1nnc(C(F)(F)F)s1` [Example 9], the “selectivity when applied to a certain crop or weed species” value (“selectivity when applied” below) with crops and weed species is on record as “more selective”.
In the case of `C=CCNC(=O)Nc1nnc(C(F)(F)F)s1` [Example 12], in the assay on crops and weed species, the “selectivity post-emergence versus pre-emergence” value was “control post-emergence growth, while have little effect in regard to pre-emergence”.
Take `O=C(Nc1ccc(Cl)cc1)Nc1nnc(C(F)(F)F)s1` [Example 15]: in the assay with crops and weed species, the “selectivity when applied” value is “more selective”.
As for `O=C(Nc1ccc(Cl)c(Cl)c1)Nc1nnc(C(F)(F)F)s1` [Example 16], in the assay on crops and weed species, the “selectivity when applied” value is given as “more selective”.
`Cc1nnc(NC(=O)N(C)C)s1` [Example 19]: the “selectivity post-emergence versus pre-emergence” value in the assay with crops and weed species is “The converse of this relationship”.
Regarding `CCc1nnc(NC(=O)N(C)C)s1` [Example 20], in the assay on crops and weed species, the “selectivity when applied” value is reported as “more selective”.
Still for that read-out and setting: the entry for `CNC(=O)Nc1nnc(CC(C)C)s1` [Example 21] is “more selective”.
Same read-out and setting: the entry for `CNC(=O)Nc1nnc(COC)s1` [Example 25] is “more selective”.
As to `CNC(=O)Nc1nnc(SC)s1` [Example 26], the “effectiveness applied to a variety” value in the assay with crops and weed species is given as “extremely effective”.
For the compound `CNC(=O)Nc1nncs1` [Example 35], in the assay with crops and weed species, the “selectivity when applied” value is “more selective”.
Consider `CNC(=O)N(C)c1nnc(C(F)(F)F)s1` [Example 36], for which the “effectiveness applied to a variety” value in the assay on crops and weed species was “extremely effective”.
On the same count and under the same terms, to `CCN(C(=O)NC)c1nnc(C(F)(F)F)s1` [Example 37] belongs “extremely effective”.

The values above are taken from US5087284A, “5-substituted thiadiazole ureas and their use as herbicides” (Rhone-Poulenc, Inc., priority 1989, dated 1992).
